# Measurements reported in publication PMC12042115 (mLife, 2025).
# Read-outs that look alike come from different tables or passages of the source.
# How the values were obtained:
# [1] = system: ClpP1(7‐200) ClpP2(16‐214) enzyme complex; assay: Intact protein MS; assay type: binding, Mycobacterium tuberculosis; conditions: 100 μM compound, 10 μM enzyme, 1 h
# Procedure: 10 μM of the ClpP1(7‐200) ClpP2(16‐214) enzyme complex was incubated with DMSO (as negative control) and 100 μM GDI‐5755 separately in 30 mM PIPES buffer only at room temperature in a final reaction volume of 40 μl. After 1 h of incubation, the samples were sent to a service lab at Peking University for a Matrix‐Assisted Laser Desorption/Ionization (MALDI) Time‐of‐Flight (TOF) MS analysis.
# [2] = system: M. tuberculosis H37Rv; design: method as in PubChem; conditions: ref PubChem; cited from earlier work
# [3] = system: GH200 (scrambled sgRNA control); assay type: cell-based, M. bovis BCG
# [4] = biological target: T1, Mtb ClpP1P2 (Mycobacterium tuberculosis, UniProt P9WPC3+P9WPC5); assay: k obs/[I] determination from progress curves; assay type: biochemical; conditions: no pre‐incubation, 50 nM ClpP1P2, 200 µM substrate
# T1 sequence (P9WPC3 16-214, one chain of several): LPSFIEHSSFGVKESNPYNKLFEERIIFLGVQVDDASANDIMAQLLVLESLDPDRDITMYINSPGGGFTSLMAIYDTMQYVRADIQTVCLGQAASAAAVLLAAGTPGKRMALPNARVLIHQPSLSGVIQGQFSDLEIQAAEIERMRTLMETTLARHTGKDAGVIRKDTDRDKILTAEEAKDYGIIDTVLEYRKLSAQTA
# Procedure: 10 µM ClpP1P2 was pre‐incubated with 10 µM GDI‐5755 or DMSO solvent for 60 min at room temperature. To induce the formation of the [EI] complex, 0.5 mM Bz‐HT was also added. The mixture was diluted 100‐, 200‐, or 400‐fold to a 50 µl final volume with the peptidase reaction buffer and 20 μM substrate to start the jump dilution experiment. Fluorescence was recorded every 5 min continuously over a 220‐min course. To determine the k obs of the competitive inhibitor, the compound was dispended into a black 384‐well plate in a twofold concentration gradient from 20 µM to 0.5 µM. Without pre‐incubation, the other components (50 nM ClpP1P2, 200 µM substrate, and 0.5 mM Bz‐HT in the PIPES buffer as above) were added like in the peptidase degradation assay. The progress was monitored by continuously recording the fluorescence readouts. The fluorescence vs reaction time in seconds was fitted into Equation (2) using GraphPad Prism 10. (2) [P]=νst+νi−νs/kobs[1−exp(−kobst)] where P represents the product concentration, v s is the steady‐state reaction rate (0 in this case), v i is the initial rate, t is a time point, and k obs is the first‐order rate constant for onset of inhibition. The k obs values obtained were plotted against the inhibitor concentration and fitted into linear regression to yield k obs/[I] values as the slope, indicating the inhibition potency of the compound.
# [5] = system: M. tuberculosis H37Rv; assay: MIC against Mtb H37Rv; assay type: cell-based, Mycobacterium tuberculosis; conditions: Mycobacterium tuberculosis, H37RV
# [6] = biological target: T1, Mtb ClpP1P2; assay: Mtb ClpP1P2 peptidase assay (library screening and IC50 determination); assay type: biochemical
# [7] = system: ClpP1P2; assay: Jump dilution experiment; assay type: biochemical, Mycobacterium tuberculosis; conditions: 10 µM, 1 h pre‐incubation, diluted to 100 nM, 4‐h course
structure (smiles),measurement,setting,value
O=C(Oc1ccc(Cl)cc1)c1ccc(N2CCOCC2)c([N+](=O)[O-])c1 [GDI‐5755],mass difference between new species and ClpP1,[1],234.30 Da
same,mass of ClpP2 after treatment,[1],unchanged
same,"MIC against H37Rv, reported",[2],3.16 µM
same,MIC shift against GH200 on ATc induction,[3],did not show shifting
same,inactivation efficiency k obs/[I],[4],178 ± 10.7 M⁻¹ s⁻¹
same,MIC90,[5],100 µM
same,IC50,"[6]; Figure 2B, neat/synthesized compounds, read-out: ClpP1P2 IC50",~2100 nM
same,IC50,"[6]; enzyme pre‐incubated with inhibitor before adding substrate, decreased to nearly enzyme concentration, read-out: IC50 after prolonged pre‐incubation",~130 nM
same,IC50,"[6]; library stocks, concentration–response, read-out: IC50",2090 nM
same,IC50,"[6]; resynthesized compound, screening assay conditions, three replicates, read-out: IC50",2400 ± 70 nM
same,recovery of peptidase activity after jump dilution,[7],did not show recovery of peptidase activity
